We go through one molecule from patent US20120003329A1, “Use of A2B Adenosine Receptor Antagonists for Treating Pulmonary Hypertension” (Gilead Sciences, Inc., priority 2010, published 2012).

Assay [1] relates to HPASMs. Put plainly: Expression of collagen, extracellular matrix proteins and enzymes, real-time RT-PCR array. The class given is cell-based, human. As to conditions: NECA 10 μM together with Compound A 100 nM, 1.5 hours. Here is the method: (§1) Gene expression was determined using real-time RT-PCR with Stratagene PCR equipment (La Jolla, Calif.). Zhong H., et al. “A2B adenosine receptors increase cytokine release by bronchial smooth muscle cells, “American Journal of Respiratory Cell and Molecular Biology, 30(1): 118-125 (2004).
HPASMs were incubated in the presence of NECA (10 μM) or NECA (10 μM) together with Compound A (100 nM) for 1.5 hours. A real-time-RT-PCR array focusing on genes involved in tissue remodeling were conducted on the RNAs isolated from the HPASMs. NECA increased the mRNA expression of ADAMTS1, ADAMTS8, CDH1, MMPI, MMP12, HAS1, ITGA7, COL1A1, COL8A1 and CTGF (FIG. 12A-B).
On the technique in general: Real-time PCR tracks product formation cycle by cycle.

For assay [2], the system named is HPASMs. The assay can be described thus: Smooth muscle cell migration, Boyden chamber with conditional media. It counts as cell-based, human. As to conditions: conditional medium from HPASMs, NECA 10 μM and Compound A 100 nM, 18 hours; migration 24 hours. The protocol:
Conditional media were collected from HPASMs treated with vehicle, NECA (10 μM), NECA (10 μM) and Compound A (100 nM), or NECA (10 μM) and an anti-IL-6 antibody (1 ng/mL, purchased from Invitrogen) for 18 hours were added to the lower wells of Boyden chamber assay systems as chemoattractants. HPASMs were allowed to migrate for 24 hours. […] It was also observed that IL-8 neutralizing antibody had no effect on cell migration. […] The released IL-6 in turn enhances smooth muscle cell migration (see FIG. 10B for illustration).

Assay [3] deals with adenosine deaminase (ADA)-deficient mouse model of adenosine-dependent pulmonary injury. The assay can be described thus: Vascular wall thickening in the lungs of ADA-deficient mice (H&E staining). The class given is in vivo. As to conditions: 1 mg/kg intraperitoneal twice daily for 14 days, lungs at postnatal day 38. The source says: The model system being used is the adenosine deaminase (ADA)-deficient mouse model of adenosine-dependent pulmonary injury.
This example follows the protocol described in Sun C X, et al. “Role of A2B adenosine receptor signaling in adenosine-dependent pulmonary inflammation and injury,” J. Clin. Invest., 116(8):2173-2182 (2006), which is hereby incorporated by reference.
All ADA-deficient mice were maintained on ADA enzyme therapy from birth to postnatal day 21 to prevent defects in alveolar development. Banerjee, et al. Am. J. Respir. Cell Mol. Biol. 30-38-50 (2004). ADA enzyme therapy was discontinued at postnatal day 21, and 3 days later the mice were given intraperitoneal injections of 1 mg/kg of Compound A twice daily for 14 days.
Lungs were collected from postnatal day 38 mice and prepared routinely for sectioning and H&E staining Tissues were taken from control (ADA+) mice (FIG. 3A), the ADA-deficient mice (FIG. 3B), and the ADA-deficient mouse treated with Compound A (FIG. 3C). Sections are representative of 6-8 different mice from each treatment group.

For assay [4], the system named is HPAECs. Put plainly: Release of IL-8 in endothelial cells (ELISA). It counts as cell-based, human. As to conditions: NECA 10 μM with Compound A 100 nM, 18 hr. The protocol: (§2) HPASM were grown in smooth muscle growth medium (SMGM-2). HPAECs were grown in endothelium growth medium (EGM-2). Before treatment, cells were seeded in 24-well plates and allowed to grow to ˜80% confluency. Cells were washed and then incubated in serum free basal medium in the absence or presence of adenosine receptor agonists and antagonists. In the proliferation assays, HPASM were incubated in 50% medium collected from HPAEC cells treated with vehicle or NECA.
(§3) IL-6 and G-CSF were measured using human 30-plex luminex kit from Invitrogen (Carlsbad, Calif.). IL-8, endothelin-1, thromboxane B2 were measured using ELISA (kits obtained from Invitrogen, AssayDesigns (Ann Arbor, Mich.), and Caymen Biomedicals (Ann, Arbor, Mich.) respectively).
HPAECs were incubated in basal medium in the absence or presence of NECA (N-ethylcarboxamide adenosine) at various concentrations (0.1 μM, 1 μM, and 10 μM) and Compound A (100 nM) for 18 hours. NECA is a known adenosine agonist of A1 and A2 subtypes. The amount of IL-8, provided in pg/mL, was measured by ELISA.
(An ELISA detects its analyte on a solid surface through an enzyme-linked reagent.)

Assay [5] has as its system Male C57BL6 mice treated with bleomycin (BLM). The assay can be described thus: Bleomycin-induced pulmonary hypertension associated with chronic lung disease in mice. It counts as in vivo. Here is the method: Methods: Male C57BL6 mice were treated with bleomycin (BLM) at 0.035 units per mouse, or vehicle (phosphate buffered saline (PBS)) intra-peritoneally twice weekly for 4 weeks. When pulmonary fibrosis was established, on day 15, mice were provided with special chow containing an A2B receptor antagonist, Compound A (˜10 mg/kg/day dose), for the next 18 days (FIG. 15). In contrast, control groups received normal chow.
On day 33, right ventricle systolic pressure (RVSP), systemic blood pressure, heart rate and lung function measurements were performed. Additionally, the lungs were collected for immunohistochemistry (IHC) for α-smooth muscle actin (αSMA).
Statistical Analysis: All data were analyzed using a 1-way ANOVA with a Newman-Keuls post test. The software used to conduct the statistical analysis was Graph-Pad Prism v5.00 (La Jolla Calif.). In all related figures, significance levels: *P<0.05, **[…]<P<0.01, ***P<0.001 refer to comparisons between PBS and BLM groups; significance levels: #P<0.05, # # 0.001<P<0.01, # # # P<0.001 refer to comparisons between BLM and BLM+Compound A groups. All values in the figures represent mean±SEM (standard error or the mean) for 5-8 mice per group.

Assay [6] has as its system HPASMs. The assay can be described thus: Cytokine release from HPASMs (IL-6, IL-8, G-CSF). It counts as cell-based, human. As to conditions: NECA 10 μM with Compound A 100 nM, 18 hr. The protocol: as §2, §3
(§4) HPASMs were incubated in the absence or presence of NECA at various concentrations (0.1 μM, 1 μM, and 10 μM) and Compound A (100 nM) for 18 hours.

Assay [7] has as its system HPASMs. Put plainly: NECA-induced expression of NOTCH3 in HPASMs (real-time RT-PCR). It counts as cell-based, human. As to conditions: NECA 10 μM along with Compound A 100 nM, 1.5 hours. The protocol:
as §1
HPASMs were incubated with NECA (10 μM) or NECA (10 μM) along with Compound A (100 nM) for 1.5 hours. The expression of NOTCH3 was measured by quantitive real-time RT-PCR using the methodologies described above.

Assay [8] deals with HPASMs. The assay can be described thus: Effect of NECA-activated HPAECs on proliferation of HPASMs (cell count). As to conditions: supernatant of HPAECs treated with NECA 10 μM and Compound A 100 nM for 18 hours; HPASMs 18 hours. The class given is cell-based, human. The protocol:
as §2
Cell supernatants were collected from HPAECs treated with vehicle (control medium), NECA (10 μM, NECA medium) or NECA and Compound A (100 nM) for 18 hours. These cell supernatants (diluted 1:1 in […] basal medium) with or without ambrisentan (30 nM) were used to incubate HPASMs for 18 hours. Cells were counted. NECA-HPAEC medium increased cell number of HPASMs at 18 hours compared to control-HPAEC medium.

Assay [9] deals with HPASMs. The assay can be described thus: Thromboxane B2 release from HPASMs (ELISA). The class given is cell-based, human. As to conditions: NECA 10 μM with Compound A 100 nM, 18 hours. The protocol: as §2, §3, §4
Assay [10] relates to HPAECs. Put plainly: Endothelin-1 release from HPAECs (ELISA). The class given is cell-based, human. As to conditions: NECA 10 μM with Compound A 100 nM, 18 hr. The protocol:
as §2, §3
HPAECs were incubated in the absence or presence of NECA at various concentrations (0.1 μM, 1 μM, and 10 μM) and Compound A (100 nM) for 18 hours. The amount of ET-1, provided in pg/mL was measured by the ELISA protocol discussed above.

The mark [11] stands for this setting: mice, Compound A ~10 mg/kg/day in chow day 15 to 33, day 33.
The mark [12] stands for this setting: mice, Compound A ~10 mg/kg/day in chow day 15 to 33, α-SMA immunostaining.
Setting [13] is: mice, Compound A ~10 mg/kg/day in chow, Flexivent.

For `CCCn1c(=O)c2[nH]c(-c3cnn(Cc4cccc(C(F)(F)F)c4)c3)nc2n(CC)c1=O` [Compound A, 3-ethyl-1-propyl-8-(1-(3-(trifluoromethyl)benzyl)-1H-pyrazol-4-yl)-1H-purine-2,6(3H,7H)-dione], the “NECA-induced mRNA expression of ADAMTS1, ADAMTS8, CDH1, MMPI, MMP12, HAS1, ITGA7, COL1A1, COL8A1 and CTGF” value in [1] is “reduced”. In assay [2], the “NECA-induced increase in smooth muscle cell migration” value was “inhibited”. The vascular wall thickening entry in [3] is given as “drastically reduced”. In addition, in [4], the “NECA-induced release of IL-8” value is “markedly reduced”. Besides, the “BLM-decreased arterial oxygenation levels” value in assay [5] (awake mice, Compound A ~10 mg/kg/day in chow, pulse oximetry) is given as “attenuated”. Moreover, the “BLM-induced increase of interleukin (IL)-6 level” value in [5] (mice, BALF and plasma, day 33, ELISA, Compound A ~10 mg/kg/day in chow) is listed as “significantly attenuated”. Also, in assay [5] (mice, Compound A ~10 mg/kg/day in chow day 15 to 33, Masson's trichrome), the “BLM-induced increase in peri-vascular fibrosis (total collagen levels in the lung)” value was “attenuated”. In assay [5] (setting [11]), the “BLM-induced increase in RV hypertrophy” value is “attenuated” and the “BLM-induced increase in RVSP” value was “attenuated”. Also, in [5] (setting [12]), the “BLM-induced increase in extent of vascular muscularization” value is reported as “attenuated” and the “BLM-induced increase in number of muscularized vessels” value was “attenuated”. In addition, in assay [5] (setting [13]), the “BLM-increased dynamic resistance of the lungs” value was “attenuated”, the BLM-increased quasi-static elastance entry is “attenuated” and the BLM-increased tissue damping entry is reported as “attenuated”. In addition, the “BLM-induced increase of ET-1” value in assay [5] (mice, plasma (ELISA) and pulmonary vessel wall, Compound A ~10 mg/kg/day in chow) is “significantly attenuated”. Also, in assay [6], the “NECA-induced release of G-CSF” value is listed as “markedly reduced”, the “NECA-induced release of IL-6” value is recorded as “markedly reduced” and the “NECA-induced release of IL-8” value is “markedly reduced”. For the same molecule, the “increase of NOTCH3 expression induced by NECA” value in assay [7] is given as “inhibited”. The “NECA induced proliferation of HPASMs” value in assay [8] is “inhibited”. In addition, the “NECA-induced release of thromboxane B2” value in [9] is recorded as “markedly reduced”. In assay [10], the “NECA-induced release of ET-1” value is reported as “markedly reduced”.
